PMC8261047, “In vivo Inhibition of the 3-Dehydroquinate Synthase by 7-Deoxysedoheptulose Depends on Promiscuous Uptake by Sugar Transporters in Cyanobacteria” (Frontiers in Microbiology, 2021)

B1: 3-dehydroquinate synthase (AvDHQS, Ava_4386) (Trichormus variabilis ATCC 29413) (protein)
chain: MTSVINVNLPTQSYEIAIAPASLDQIGQSLAGLKLGKKVLLVSNPTIFKHFGKVAVDSLEAAGFQVASYCLPAGERYKTLNSIQKLYDIALENRLERSSTMVALGGGVIGDMTGFAAATWLRGINVVQVPTTLLAMVDSAIGGKTGVNHPHGKNLIGAFHQPRFVLIDPQVLKTLPVREFRAGMAEVIKYGVIWDAELFNQLEQSKRLDQLRYIKPELMDAILTRSCQAKADVVGKDEKEGGLRAILNYGHTVGHAVESLTNYRLLKHGEAVGIGMVAAGQIAVNLGLWQQADADRQNALIEKAGLPTKLPAGLDIEGIIEALQLDKKVKDGKVRFVLPTQIGVVTVTDEVTSDHIRQVLQQM
notes: Ava_4386 in pET22b, C-terminal His-Tag, ∼39 kDa

Experiments:
[1] = molecular target: T1, 3-dehydroquinate synthase (AvDHQS, Ava_4386) (Trichormus variabilis, UniProt Q3M4V2); experiment: Malachite green phosphate release assay with purified AvDHQS; Michaelis-Menten kinetics at […] 7dSh; type: biochemical
T1 construct: gene aroB; Ava_4386 in pET22b, C-terminal His-Tag, ∼39 kDa
T1 sequence (Q3M4V2 1-363): B1 chain

[2] = substrate: O=C(O)C(=O)C[C@@H](O)[C@H](O)[C@H](O)COP(=O)(O)O; experiment: Malachite green phosphate release assay with purified AvDHQS; kM of the substrate; type: biochemical, Trichormus variabilis; settings: NAD^+

Row | Molecule | Ki [1] [µM] | Km [2] [µM]
1 | C[C@@H](O)[C@@H](O)[C@@H](O)[C@H](O)C(=O)CO [7dSh, 7-deoxy-D-altro-2-heptulose] | 17.6 | 
2 | B1 |  | 1.8 ± 0.3
